{"source": "PubChem BioAssay AID504875", "about": "(The Scripps Research Institute Molecular Screening Center, 2011)", "system": "cell viability, ATP luminescence (cytotoxicity counter-screen)", "experiment": "cytotoxicity of S1P4 agonist candidates, late-stage follow-up, cytotoxicity control for S1P4 agonist project, cell-based, luminescence, dose response, set 2, assay provider (AID 504875)", "note": "Activity calls are given as the source filed them. No rule for the calls is given here.", "data": [{"smiles": "COCCN=C1S/C(=C\\c2cc(C)n(-c3ccc(F)cc3F)c2C)C(=O)N1C", "values": [{"measurement": "CC50", "result": "> 10 µM (inactive)"}]}]}
